Laboratory results taken from US12114689B2 (NICOVENTURES TRADING LIMITED, priority 2018, dated 2024).

Assays:
[1] = cited from earlier work
[2] = binding energy with the cyclodextrin host; conditions: such as (2-Hydroxypropyl)-β-cyclodextrin
Excerpt: The flavor components should be added last; this is due to the generally higher binding energy (vs. nicotine) with the cyclodextrin host. […] For menthol example, the approximate binding energies are −4.13 Kcal·mol^−1 (nicotine) and −5.06 Kcal·mol^−1 (menthol). […] Microfiltration may then be performed, in this case, to remove any excess menthol which has not formed a complex with cyclodextrin.

Molecule: 2-hydroxy-propyl-β-cyclodextrin [2-hydroxy-propyl-O-cyclodextrin]
- solubility in water compared to base cyclodextrins such as β-cyclodextrin [1]: increased solubility in water

Molecule: CN1CCC[C@H]1c1cccnc1 (stereo in doubt) [Nicotine, 3-(1-methylpyrrolidin-2-yl) pyridine]
- approximate binding energy with the cyclodextrin host [2]: ~-4.13 kcal/mol

Molecule: CC1CCC(C(C)C)C(O)C1 (stereo not drawn) [menthol]
- approximate binding energy with the cyclodextrin host [2]: ~-5.06 kcal/mol
